In patent publication US8642647B2, “N1-benzo[1,3]dioxol-5-ylmethyl-N2-substituted biguanide derivative, preparation method thereof, and pharmaceutical composition containing same” (Hanall Biopharma Co., Ltd., priority 2008, dated 2014):
Several values for one entry are separate records, joined by “and”; a condition that tells them apart may be missing. Equal entries are not always repeated. Structures can show the parent of a compound that is named as a salt.

Experiments:
HepG2 cells [1] = assay: Measurement of cholesterol synthesis inhibitory ability; assay type: cell-based; settings: HepG2 cells; for Cholesterol (100 μM) aver.: 100 μM compound; for Cholesterol (100 μM) aver. / Cholesterol (500 μM) aver.: 24 hours, content of cholesterol formed, lower value = stronger inhibition; for Cholesterol (500 μM) aver.: 500 μM compound
Protocol: (§1) 2 mM metformin was used as a comparative compound for each of the plates (control group).
A cholesterol synthesis inhibitory ability, which is an important function of AMPK (AMP-activated protein kinase), was measured using HepG2 cells (ATCC: American Type Culture Collection) as a hepatic cell model according to the following procedure.
The hepatic cell model HepG2 cells were cultured in 1% serum-containing media (DMEM (Gibco), FBS (Gibco)) for 24 hours, and then treated with 100 μM or 500 μM of each of the compounds prepared in Examples for 24 hours. Then, the cells were disrupted with a lysis solution (0.1 M potassium phosphate, pH 7.4, 0.05 M NaCl, 5 mM cholic acid, 0.1% Triton X-100 (Sigma)). To the disrupted cells was added the same volume of a reaction solution (2 U/ml of a cholesterol oxidizing agent, 2 U/ml of a peroxidase, 0.2 U/ml of a cholesterol esterase, and 300 μM of Amplex red as a fluorescent factor (Molecular Probe)), which was allowed to react at 37° C. for 30 minutes. After completion of the reaction, the content of cholesterol formed in the cell lysates was measured at a wavelength of 560/590 nm (ex/em) using a fluorescence microscope.
A lower measurement value means an increased cholesterol synthesis inhibitory ability.

HepG2 cells [2] = assay: Measurement of triglyceride synthesis inhibitory ability; assay type: cell-based; settings: HepG2 cells; for Triglyceride (100 μM) aver.: 100 μM compound; for Triglyceride (100 μM) aver. / Triglyceride (500 μM) aver.: 24 hours, content of triglyceride formed, lower value = stronger inhibition; for Triglyceride (500 μM) aver.: 500 μM compound
Protocol: as §1
HepG2 cells (ATCC: American Type Culture Collection) were cultured in 1% serum-containing media (DMEM (Gibco), FBS (Gibco)) for 24 hours, and then treated with 100 μM or 500 μM of each of the compounds prepared in Examples for 24 hours. Then, the cells were disrupted with a lysis solution (0.1 M potassium phosphate, pH 7.4, 0.05 M NaCl, 5 mM cholic acid, 0.1% Triton X-100). To the disrupted cells was added the same volume of a reaction solution (0.76 U/ml of a glycerol kinase (Asan Pharmaceutical Co., Ltd.), […] of a peroxidase (Asan Pharmaceutical Co., Ltd.), 22.2 U/ml of a glycerol oxidizing agent (Asan Pharmaceutical Co., Ltd.), and 300 μM of Amplex red as a fluorescent factor (Molecular Probe)), which was allowed to react at 37° C. for 30 minutes. After completion of the reaction, the content of triglyceride formed in the cell lysates was measured at a wavelength of 560/590 nm (ex/em) using a fluorescence microscope.
A lower measurement value means an increased triglyceride synthesis inhibitory ability.

HepG2 cells [3] = assay: Measurement of gluconeogenesis inhibitory ability; assay type: cell-based; settings: for Gluconeogenesis inhibition (100 μM) aver. / activity at 100 µM: 100 μM compound, 24 hours, content of glucose formed from 14C-lactate, lower value = stronger inhibition; for activity at 100 µM: Homo sapiens, HepG2, 24 h, read-out: Gluconeogenesis inhibition (100 μM) aver.
Protocol: as §1
HepG2 cells (ATCC: American Type Culture Collection) were cultured in 10% serum-containing high glucose media, transferred to no serum-containing low glucose media (DMEM (Gibco), FBS (Gibco)), and then treated with 100 μM of each of the compounds for 24 hours. Then, the cells were treated with 0.5 μCi ^14C-lactate (Amersham Pharmacia) and 10 mM L-lactate (Sigma), and cultured for 4 hours. After cultivation, the media were removed therefrom, and the cells were washed with PBS, treated with 0.1N NaOH and kept at room temperature for 1 hour. Then, the cells were neutralized with 1N HCl, and the content of glucose formed in the cells was measured with a liquid scintillation counter.
A lower measurement value means an increased gluconeogenesis inhibitory ability.

C2C12 cells = assay: Measurement of glucose absorption ability; assay type: cell-based; settings: for Glucose absorption (100 μM) aver.: 100 μM compound with 1 μM insulin, 24 hours, differentiated C2C12 cells, 3H-deoxy-glucose, higher value = stronger, more than 200% counts as glucose absorption ability
Protocol: as §1
C2C12 cells (ATCC: American Type Culture Collection), a muscle cell model, were induced to differentiate into muscle cells in 2% bovine fetal serum-containing media (DMEM (Gibco), FBS (Gibco)) for 6 days. The C2C12 cells which differentiated into muscle cells were transferred to serum-free low glucose media (DMEM (Gibco), FBS (Gibco)), treated with 100 μM of each of the compounds, and then cultured with 1 μM of insulin for 24 hours. After cultivation, the cells were treated with 1 μCi ^3H-deoxy-glucose (Amersham Pharmacia) and 10 μM deoxy-glucose (Sigma) at 37° C. for 15 minutes. The media were removed therefrom, and the cells were washed twice with PBS (phosphate buffered saline). The washed cells were treated with 0.1N NaOH and neutralized with 1N HCl. The content of glucose absorbed into the cells was measured with a liquid scintillation counter.
A higher measurement value means a stronger ability to reduce insulin resistance.

[4] = Metformin 2 mM, one value per plate

Row | melting point [°C] | Compound | Cholesterol (100 μM) aver. (HepG2 cells [1]) | Cholesterol (500 μM) aver. (HepG2 cells [1]) | Triglyceride (100 μM) aver. (HepG2 cells [2]) | Triglyceride (500 μM) aver. (HepG2 cells [2]) | Gluconeogenesis inhibition (100 μM) aver. (HepG2 cells [3]; HepG2 cells) | Glucose absorption (100 μM) aver. (C2C12 cells) [%] | effect in inhibiting gluconeogenesis better than that of the control group (HepG2 cells [3]; 100 μM compound versus 2 mM metformin) | activity at 100 µM (HepG2 cells [3]; HepG2 cells) [%] | Cholesterol aver. (control group) (HepG2 cells [1]; [4]) | Triglyceride aver. (control group) (HepG2 cells [2]; [4]) | Gluconeogenesis inhibition aver. (control group) (HepG2 cells [3]; Metformin 2 mM, HepG2 cells, one value per plate) | Glucose absorption aver. (control group) (C2C12 cells; Metformin 2 mM, C2C12 cells, one value per plate) | Gluconeogenesis inhibition (100 μM) aver. (HepG2 cells [3]; HepG2 cells, 100 µM)
1 | 196.1 to 198.6 | N=C(N)NC(=Nc1cccc2ccccc12)NCc1ccc2c(c1)OCO2 (as salt: hydrochloride) [Example 3, N1-benzo[1,3]dioxol-5-ylmethyl-N2-(1-naphthyl)biguanide hydrochloride] |  |  |  |  |  |  |  |  |  |  |  |  | 
2 |  | CCc1cc(Cl)ccc1NC(=N)NC(=N)NCc1ccc2c(c1)OCO2.Cl [Example 8, N1-benzo[1,3]dioxol-5-ylmethyl-N2-(2-ethyl-4-chloro)phenyl biguanide hydrochloride] | −1.48 | 28.1 | 3.35 | 19.3 | 96.20 | 14.21 |  |  |  |  |  |  | 
3 | 141.7 to 155.4 | CC(C)(C)CC(C)(C)N=C(NCc1ccc2c(c1)OCO2)NC(=N)N.Cl [Example 9, N1-benzo[1,3]dioxol-5-ylmethyl-N2-t-octyl biguanide hydrochloride] | 37.3 | −7.10 | 82.6 | −1.23 |  |  | at least 20 times | 47.5 |  |  |  |  | 
4 | 143.9 to 158.1 | CN=C(NCc1ccc2c(c1)OCO2)NC(=N)N.Cl [Example 17, N1-benzo[1,3]dioxol-5-ylmethyl-N2-methyl biguanide hydrochloride] | 55.85 | 12.19 | 96.55 | 53.45 |  |  |  | 90.2 |  |  |  |  | 
5 |  | Cl.N=C(NCc1ccc2c(c1)OCO2)NC(=N)NCC1CC1 [Example 21, N1-benzo[1,3]dioxol-5-ylmethyl-N2-cyclopropanemethyl biguanide hydrochloride] | 54.92 | 15.61 | 108.88 | 83.07 | 88.12 | 162.2 |  |  |  |  |  |  | 
6 |  | Cl.N=C(NCc1ccc2c(c1)OCO2)NC(=N)Nc1ccc(-c2ccccc2)cc1 [Example 35, N1-benzo[1,3]dioxol-5-ylmethyl-N2-(4-biphenyl)biguanide hydrochloride] | 9.93 | 23.56 | 18.86 | 14.13 | 2.28 | 39.19 |  |  |  |  |  |  | 
7 |  | CN(C)C(=N)N=C(N)N [Metformin, metformin, reference compound] |  |  |  |  |  |  |  |  | 73.31 and 74.50 and 85.91 and 70.69 | 74.57 and 69.88 and 73.61 and 70.05 | 64.50 and 59.11 and 53.09 and 78.33 | 253.20% and 336.45% and 291.63% and 170.94% | 
8 |  | N1-benzo[1,3]dioxol-5-ylmethyl-N2-(1-adamantyl)biguanide hydrochloride (isomer) [Example 28] | 73.67 | 30.11 | 89.72 | 28.87 |  | 2.20 |  |  |  |  |  |  | 79.17
9 |  | N1-benzo[1,3]dioxol-5-ylmethyl-N2-(1-adamantyl)biguanide hydrochloride (isomer) [Example 29] | 43.03 | 67.50 | 101.52 | 81.39 |  | 140.2 |  |  |  |  |  |  | 92.07
10 |  | N1-benzo[1,3]dioxol-5-ylmethyl-N2-t-butyl biguanide hydrochloride [Example 4] | 27.6 | 11.0 | 89.8 | 70.1 | 100.2 | 162.5 |  |  |  |  |  |  | 
